Measurements published in patent US20220153704A1 (priority 2019, published 2022).

Assay: DVS characterization of hygroscopicity and stability under different humidity
Format: physicochemical
Details: 25° C.
Procedure: The dynamic vapor sorption (DVS) graph was collected on DVS Intrinsic of SMS (Surface Measurement Systems). The relative humidity at 25° C. was corrected by the deliquescent point of LiCl, Mg(NO3)2 and KCl.
In order to evaluate the hygroscopicity and stability of anhydrous crystalline form E under different humidity conditions, DVS and XRPD tests were performed on crystalline form E samples at a constant temperature of 25° C.

Question: Which “crystalline form before and after the DVS test (XRPD)” value does the source give for `CCN1C[C@]2(COC)CC[C@H](OC)[C@]34C5C[C@]6(O)[C@@H](OC)C[C@@](OC(C)=O)(C5[C@H]6OC(=O)c5ccc(OC)cc5)[C@H](C13)[C@H](OC)[C@H]24` (stereo partly drawn) [crystalline form E, (1α,6α,14α,16β)tetrahydro-8,13,14-triol-20-ethyl-1,6,16-trimethoxy-4-methoxymethyl-8-acetoxy-14-(4′-p-methoxybenzyl)-aconitane] here?
Answer: Its value is “did not change”.

Question: What about the “water adsorbed (DVS)” value (humidity 80% RH) of the same compound?
Answer: Its value is 0.12%.

Question: And the hygroscopicity (DVS, up to 80% RH)?
Answer: Its hygroscopicity is “no hygroscopicity”.
